Values of other authors in patent US20220273779A1, “TAU PEPTIDE ANTIGENS AND ANTIBODIES BINDING THERETO FOR THE TREATMENT OF TAUOPATHIES” (The Board of Regents of the University of Texas System, priority 2018, published 2022).
Read-outs that look alike come from different tables or passages of the source.

What was measured:
[1] = RRMS, first-line treatments

Substance: glatiramer acetate
- Reduction of relapses [1]: approximately 30%
- Irritation at the injection site (intramuscular injections): ≤ 33%
- Irritation at the injection site (subcutaneous injections): up to 90%
